According to patent US8846981B2, “1,1-di[(alkylphenoxy)ethoxy]cyclohexanes” (Southern Lithoplate, Inc., priority 2012, dated 2014):

Columns and labels:
[1] = Solubility of the ketals in water / deionized water; type: physicochemical; settings: for Solubility in water: product or starting alcohol as described in the example
Source text: A typical aqueous alkaline developer for a positive-working, lithographic printing plate contains roughly 5% by weight of NaOH or KOH. A 1.0 M NaOH solution is equivalent to 4% by weight of NaOH.

[2] = Acid decomposition of the ketal back to starting alcohol and cyclohexanone; type: physicochemical; settings: addition of an acid, such as p-toluenesulfonic acid
Procedure: A stirred mixture of 72 g (0.5 mol) of 1,1-dimethoxycyclohexane, 250 g (1.0 mol) of 2-[4-(1,1,3,3-tetramethylbutyl)phenoxy]ethanol, 0.080 g of p-toluenesulfonic acid, and 300 ml of toluene was reacted in a flask with a thermometer and fractional distillation column at 120° C. for 8 hours with continuous stirring. The low boiling methanol that was produced during the reaction was removed. The reaction mixture was cooled to room temperature and washed with a small amount of an aqueous 1.0 M sodium hydroxide solution until the mixture was neutralized. The reaction mixture was then washed with a saturated sodium chloride solution to remove any remaining water in the toluene. Next the reaction mixture was dried over anhydrous potassium carbonate to remove any minor amounts of water and to make sure all of the p-toluenesulfonic acid was removed. The resulting mixture was filtered. The filtrate was evaporated under reduced pressure at 60° C. until all of the toluene was removed. […] The starting surfactant is water-insoluble. This ketal with a theoretical molecular weight of 580 has the structural formula shown below.

[3] = related art; cited from earlier work
[4] = related art; cited from earlier work; remark: listed apart in the source
[5] = Solubility in a 1.0 M NaOH water solution; type: physicochemical; settings: 1.0 M NaOH water solution (equivalent to 4% by weight NaOH)
Source text: The physical appearance of the ketals from Examples 1-4 and from Comparative Examples A-B are given in the following table, along with their solubility in deionized water and in a 1.0 M NaOH water solution. A typical aqueous alkaline developer for a positive-working, lithographic printing plate contains roughly 5% by weight of NaOH or KOH. A 1.0 M NaOH solution is equivalent to 4% by weight of NaOH.

Row | Compound | Solubility in water [1] | Decomposition by acid [2] | Decomposition by strong acids (background statement) [3] | Solubility in water (background statement, words) [4] | Solubility in DI Water ([1]; deionized water) | Solubility in 1.0M NaOH [5]
1 | OCCOc1ccccc1 [2-phenoxyethanol] | low water solubility |  |  |  |  | 
2 | CC(C)(C)CC(C)(C)c1ccc(OCCO)cc1 [2-[4-(1,1,3,3-tetramethylbutyl)phenoxy]ethanol] | water-insoluble |  |  |  |  | 
3 | c1ccc(OCCOC2(OCCOc3ccccc3)CCCCC2)cc1 [A, 1,1-di(2-phenoxyethoxy)cyclohexane] | water-insoluble | can be converted back to the starting alcohol and cyclohexanone | decompose this ketal into cyclohexanone and 2-phenoxyethanol | water insoluble | insoluble | insoluble
4 | CC(C)(C)c1ccc(OCCO)cc1 [2-[4-(1,1-dimethylethyl)phenoxy]ethanol] | water-insoluble |  |  |  |  | 
